# In patent US5500442A, “Cyclobut-3-ene-1,2-dione derivatives as smooth muscle relaxants” (American Home Products Corporation, priority 1994, dated 1996):
# What was measured:
# [1] = system: Isolated Rat Aortic Tissue; test: Aortic smooth muscle relaxing activity: inhibition of KCl-evoked contracture in isolated rat aortic rings; assay type: cell-based, Sprague-Dawley rats; details: isolated rat thoracic aorta rings, 25 mM KCl; read-out: IC50 of Aorta Contraction
# Excerpt: Aortic smooth muscle relaxing activity of the compounds of this invention was established in accordance with standard pharmaceutically accepted test procedures in representative compounds as follows:
# Sprague-Dawley rats (150-200 g) are rendered unconscious by CO2 asphyxiation and then euthanized by cervical dislocation. The thoracic aorta is removed into warm (37 deg. C.) Krebs-Henseleit solution. The aorta is cleaned of fat and loose adventitia and cut into rings 3-4 mm in width. The rings are subsequently suspended between two stainless steel wire tissue holders in a 10 ml tissue bath. One wire tissue holder is attached to fixed hook while the other is attached to an isometric force transducer. Resting tension is set at 1.0 g. The tissues are allowed to recover for a period of 60 mins prior to beginning the experiment. The tissues are challenged with 25 mM KCl to elicit a contracture. The tissue are then washed repeatedly with fresh Krebs-Henseleit solution over a period of 30 rains and allowed to recover to baseline tension. 25 mM KCl is then introduced into the tissue bath to evoke a contracture that is allowed to stabilize for not less than 45 rains. Increasing concentrations of test compound or vehicle are then added to the tissue bath in a cumulative fashion.
# Isometric force developed by the aortic rings is measured using force transducer and recorded on a polygraph. The percentage inhibition of contractile force evoked by each concentration of a given test compound is used to generate a concentration-response curve. The concentration required to elicit 50% inhibition of pre-drug contractile activity (IC50 concentration) is calculated from this concentration-response curve. The maximum percentage inhibition of contractile activity evoked by a test compound is also recorded for concentrations of test compound<or equal to 30 uM.
# Isolated Rat Bladder = test: Bladder smooth muscle relaxing activity: inhibition of KCl-enhanced contractions in isolated rat bladder strips; assay type: cell-based, Sprague-Dawley rats; details: 15 mM KCl; for IC50: 37 deg. C, read-out: IC50 of Bladder Contraction; for inhibition at up to 30 µM: at 30 μM, value in parentheses, read-out: % Inhibition of Bladder Contraction at 30 μM
# Excerpt: Bladder smooth muscle relaxing activity of the compounds of this invention was established in accordance with standard pharmaceutically accepted test procedures in representative compounds as follows:
# Sprague-Dawley rats (150-200 g) are rendered unconscious by CO2 asphyxiation and then euthanized by cervical dislocation. The bladder is removed into warm (37 deg. C) physiological salt solution (PSS) of the following composition (mM): NaCl, 118.4; KCl, 4.7; CaCl2, 2.5; […]; NaHCO3, 24.9; KH2 PO4, 1.2; glucose, 11.1; EDTA, 0.023; gassed with […]; pH 7.4. The bladder is opened and then cut into strips 1-2 mm in width and 7-10 mm in length. The strips are subsequently suspended in a 10 ml tissue bath under an initial resting tension of 1.5 g. The strips are held in place by two surgical clips one of which is attached to fixed hook while the other is attached to an isometric force transducer. […] The carbachol is then washed out and the tissue allowed to relax to its resting level of activity. Following 1 further 30 min period of recovery an additional 15 mM KCl are introduced into the tissue bath. This increase in KCl concentration results in a large increase in the amplitude of spontaneous contractions (and initiation of contractions in previously quiescent strips) superimposed upon a small increase in basal tone. Following stabilization of this enhanced level of contractile activity, incremental increases in the concentration of test compound or vehicle are introduced into the tissue bath. Contractile activity is measured for each compound or vehicle concentration during the last rain of a 30 rain challenge.
# Isometric force developed by the bladder strips is measured using a […] to elicit 50% inhibition of pre-drug contractile activity (IC50 concentration) is calculated from this concentration-response curve. The maximum percentage inhibition of contractile activity evoked by a test compound is also recorded for concentrations of test compound<or equal to 30 uM.
IC50 [1] [nM],IC50 (Isolated Rat Bladder) [nM],SMILES,inhibition at up to 30 µM (Isolated Rat Bladder) [%]
1160 ± 210,10100 ± 390,"CC(C)Oc1c(-c2ccc3c(c2)[C@@H](N2Cc4ccccc4C2=O)[C@H](O)C(C)(C)O3)c(=O)c1=O (relative stereo) [Example 3, 3-[trans-3-hydroxy-2,2-dimethyl-4-(1-oxo-1,3-dihydroisoindol-2-yl)-chroman-6-yl]-4-isopropoxy-cyclobut-3-ene-1,2-dione]",
,,"CC1(C)Oc2ccc(-c3c(NCCO)c(=O)c3=O)cc2[C@@H](N2Cc3ccccc3C2=O)[C@@H]1O (relative stereo) [Example 5, 3-[trans-3-Hydroxy-2,2-dimethyl-4-(1-oxo-1,3-dihydroisoindol-2-yl),-chroman-6-yl]-4-(2-hydroxy-ethylamino)-cyclobut-3-ene-1,2-dione]",14
830 ± 240,1620,"CNc1c(-c2ccc3c(c2)[C@@H](N2Cc4ccccc4C2=O)[C@H](O)C(C)(C)O3)c(=O)c1=O (relative stereo) [Example 7, 3-[trans-3-Hydroxy-2,2-dimethyl-4-(1-oxo-1,3-dihydroisoindol-2-yl)-chroman-6-yl]-4-methylamino-cyclobut-3-ene-1,2-dione]",
,21900,"CC1(C)Oc2ccc(-c3c(O)c(=O)c3=O)cc2[C@@H](N2Cc3ccccc3C2=O)[C@@H]1O (relative stereo) [Example 8, 3-Hydroxy-4-[trans-3-hydroxy-2,2-dimethyl-4-(1-oxo-1,3-dihydroisoindol-2-yl)-chroman-6-yl]-cyclobut-3-ene-1,2-dione]",
170 ± 40,190 ± 20,"CC1(C)Oc2ccc(-c3c(N)c(=O)c3=O)cc2[C@@H](N2Cc3ccccc3C2=O)[C@@H]1O (relative stereo) [Example 4, 4-Amino-3-[trans-3-hydroxy-2,2-dimethyl-4-(1-oxo-1,3-dihydroisoindol-2-yl)-chroman-6-yl]-cyclobut-3-ene-1,2-dione]",
15 ± 7,110,"Cc1c(-c2ccc3c(c2)[C@@H](N2Cc4ccccc4C2=O)[C@H](O)C(C)(C)O3)c(=O)c1=O (relative stereo) [Example 9, 3-[trans-3-Hydroxy-2,2-dimethyl-4-(1-oxo-1,3-dihydro-isoindol-2-yl)-chroman-6-yl]-4-methyl-cyciobut-3-ene-1,2-dione]",
,,"CC1(C)Oc2ccc(-c3c(N4CCCC4)c(=O)c3=O)cc2[C@@H](N2Cc3ccccc3C2=O)[C@@H]1O (relative stereo) [Example 6, 3-[trans-3-Hydroxy-2,2-dimethyl-4-(1-oxo-1,3-dihydroisoindol-2-yl)-chroman-6-yl]-4-pyrrolindin-1-yl-cyclobut-3-ene-1,2-dione]",33
